In patent US11814392B2, “Chromenopyridine-based compounds and methods of making and use thereof” (Rosalind Franklin University of Medicine and Science, priority 2020, dated 2023):

Molecular target: T1, PMCT (Homo sapiens, UniProt Q86YT5)
T1 construct: expressed in transfected cells; host or cells: HEK293T cells transfected with pcDNA3.1(+)-SLC13A5 using PEI
Test: PMCT inhibition, citrate transport assay of whole HEK293T cells
Type: cell-based
Conditions: for dose-dependence of PMCT inhibition / PMCT Inhibition: HEK293T cells; for dose-dependence of PMCT inhibition: even at moderate concentrations (FIG. 1); for inhibition at 2.8 µM / inhibition at 28 µM / inhibition at 140 µM / inhibition at 280 µM: HEK-293T; for inhibition at 2.8 µM: read-out: PMCT Inhibition, Inhibitor Concentration 2.8 μM, HEK293T cells; for inhibition at 28 µM: read-out: PMCT Inhibition, Inhibitor Concentration 28 μM, HEK293T cells; for inhibition at 140 µM: read-out: PMCT Inhibition, Inhibitor Concentration 140 μM, HEK293T cells; for inhibition at 280 µM: read-out: PMCT Inhibition, Inhibitor Concentration 280 μM, HEK293T cells; for PMCT Inhibition: Inhibitor Concentration 280 μM, 280 µM

T1 sequence (Q86YT5 whole entry): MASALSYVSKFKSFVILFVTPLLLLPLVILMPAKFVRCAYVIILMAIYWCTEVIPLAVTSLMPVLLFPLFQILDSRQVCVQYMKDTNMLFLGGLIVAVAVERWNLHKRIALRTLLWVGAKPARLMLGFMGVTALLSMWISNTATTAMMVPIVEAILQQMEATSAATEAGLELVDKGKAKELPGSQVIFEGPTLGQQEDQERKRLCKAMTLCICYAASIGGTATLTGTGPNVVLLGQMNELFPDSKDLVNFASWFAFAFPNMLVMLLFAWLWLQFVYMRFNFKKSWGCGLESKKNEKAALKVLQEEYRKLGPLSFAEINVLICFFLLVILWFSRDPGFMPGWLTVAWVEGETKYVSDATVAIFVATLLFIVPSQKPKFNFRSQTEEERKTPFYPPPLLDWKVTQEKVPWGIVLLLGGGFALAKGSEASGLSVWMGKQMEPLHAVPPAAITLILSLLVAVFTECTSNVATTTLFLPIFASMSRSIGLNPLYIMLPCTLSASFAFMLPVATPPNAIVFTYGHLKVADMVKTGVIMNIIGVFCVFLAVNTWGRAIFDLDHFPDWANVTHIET

| SMILES | dose-dependence of PMCT inhibition | inhibition at 2.8 µM [%] | inhibition at 28 µM [%] | inhibition at 140 µM [%] | inhibition at 280 µM [%] | PMCT Inhibition [%] |
| --- | --- | --- | --- | --- | --- | --- |
| COc1ccc(SC2c3c(OC)cc(OC)cc3Oc3nc(N)c(C#N)c(N)c32)cc1 (stereo not shown) [Compound 2, 2,4-diamino-6,8-dimethoxy-5-((4-methoxyphenyl)thio)-5H-chromeno[2,3-b]pyridine-3-carbonitrile] | dose-dependent inhibition | 34.7 | 24 | 48.5 | 50 | – |
| CSc1ccc(SC2c3ccc(O)cc3Oc3nc(N)c(C#N)c(N)c32)cc1 (stereo not shown) [Compound 3, 2,4-Diamino-8-hydroxy-5-((4-(methylthio)phenyl)thio)-5H-chromeno[2,3-b]pyridine-3-carbonitrile] | dose-dependent inhibition | 6.2 | 9.9 | 28.6 | 58.7 | – |
| CCN(CC)c1ccc2c(c1)Oc1nc(N)c(C#N)c(N)c1C2Sc1ccc(OC)cc1 (stereo not shown) [Compound 4, 2,4-diamino-8-(diethylamino)-5-((4-methoxyphenyl)thio)-5H-chromeno[2,3-b]pyridine-3-carbonitrile] | – | -23.2 | 28.6 | – | -8.7 | – |
| COc1ccc(SC2c3ccc(O)cc3Oc3nc(N)c(C#N)c(N)c32)cc1 (stereo not shown) [Compound 5, 2,4-Diamino-8-hydroxy-5-((4-methoxyphenyl)thio)-5H-chromeno[2,3-b]pyridine-3-carbonitrile] | – | -12.8 | -4.5 | – | -3.2 | – |
| COc1cc2c(cc1OC)C(Sc1ccc(SC)cc1)c1c(nc(N)c(C#N)c1N)O2 (stereo not shown) [Compound 6, 2,4-diamino-7,8-dimethoxy-5-((4-(methylthio)phenyl)thio)-5H-chromeno[2,3-b]pyridine-3-carbonitrile] | dose-dependent inhibition | 9.4 | -45.9 | 46.8 | 70.2 | 87.4 |
| COc1ccc2c(c1)Oc1nc(N)c(C#N)c(N)c1C2Sc1ccc(O)cc1 (stereo not shown) [Compound 7, 2,4-Diamino-5-((4-hydroxyphenyl)thio)-8-methoxy-5H-chromeno[2,3-b]pyridine-3-carbonitrile] | dose-dependent inhibition | 28 | -13.3 | 42.5 | 62.9 | 77.7 |
| CCN(CC)c1ccc2c(c1)Oc1nc(N)c(C#N)c(N)c1C2Sc1ccc(SC)cc1 (stereo not shown) [Compound 8, 2,4-diamino-8-(diethylamino)-5-((4-(methylthio)phenyl)thio)-5H-chromeno[2,3-b]pyridine-3-carbonitrile] | – | -41.5 | -1.5 | – | 58.4 | – |
| CSc1ccc(SC2c3ccc(C)cc3Oc3nc(N)c(C#N)c(N)c32)cc1 (stereo not shown) [Compound 9, 2,4-Diamino-8-methyl-5-((4-(methylthio)phenyl)thio)-5H-chromeno[2,3-b]pyridine-3-carbonitrile] | – | 35.7 | 1.8 | – | 35.7 | – |
